Source: PMC3479356 (ChemMedChem, 2012)
Like-named read-outs stand apart in the source and are kept apart here.

Tests used:
[1] = molecular target: T1, recombinant human RXR receptor (Homo sapiens, UniProt P19793); experiment: RXR mammalian two-hybrid assay
T1 sequence (P19793 1-462) 1: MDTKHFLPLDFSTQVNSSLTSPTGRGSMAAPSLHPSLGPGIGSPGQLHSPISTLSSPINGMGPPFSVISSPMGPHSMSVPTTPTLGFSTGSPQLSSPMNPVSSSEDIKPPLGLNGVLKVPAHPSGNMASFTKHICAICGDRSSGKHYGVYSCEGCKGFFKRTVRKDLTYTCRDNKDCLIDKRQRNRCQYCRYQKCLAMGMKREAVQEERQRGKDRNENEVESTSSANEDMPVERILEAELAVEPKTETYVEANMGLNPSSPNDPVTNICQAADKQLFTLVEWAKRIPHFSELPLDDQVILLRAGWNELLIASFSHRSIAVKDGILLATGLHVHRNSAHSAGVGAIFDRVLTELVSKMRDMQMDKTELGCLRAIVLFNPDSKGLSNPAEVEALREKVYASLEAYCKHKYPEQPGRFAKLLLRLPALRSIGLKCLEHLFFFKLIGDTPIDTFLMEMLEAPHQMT
T1 sequence (P19793 1-462) 2: T1 sequence (P19793 1-462) 1

human RXRα = molecular target: T2, human RXRα (Homo sapiens, UniProt P19793); experiment: RXRE-mediated transcription assay; type: cell-based; conditions: 10^−7 M, 24 h
T2 sequence (P19793 1-462): T1 sequence (P19793 1-462) 1

RXR = conditions: Caco-2 colon cancer cells; cited from earlier work

## C=C(c1ccc(C(=O)O)c(Cl)c1)c1cc2c(cc1C)C(C)(C)CCC2(C)C [Analog 12, 2-Chloro-4-(1-(1,2,3,4-tetrahydro-1,1,4,4,6-pentamethylnaphthalen-7-yl)vinyl)benzoic acid]
[1]
  EC50: 90 nM

## C=C(c1ccc(C(=O)O)c(Br)c1)c1cc2c(cc1C)C(C)(C)CCC2(C)C [Analog 14, 2-Bromo-4-(1-(1,2,3,4-tetrahydro-1,1,4,4,6-pentamethylnaphthalen-7-yl)vinyl)benzoic acid]
[1]
  EC50: 150 nM

## C=C(c1ccc(C(=O)O)c(I)c1)c1cc2c(cc1C)C(C)(C)CCC2(C)C [Analog 16, 2-Iodo-4-(1-(1,2,3,4-tetrahydro-1,1,4,4,6-pentamethylnaphthalen-7-yl)vinyl)benzoic acid]
[1]
  EC50: 280 nM
[1]; 10^−7 M, 24 h, independent of the cell line (Caco-2 and HCT-116)
  RXR binding and homodimerization, % of the parent compound 1 efficiency: ~20%

## C=C(c1cc(F)c(C(=O)O)c(F)c1)c1cc2c(cc1C)C(C)(C)CCC2(C)C [Analog 18, 2,6-difluoro-4-(1-(1,2,3,4-tetrahydro-1,1,4,4,6-pentamethylnaphthalen-7-yl)vinyl)benzoic acid]
Human RXRα; Caco-2 and HCT-116 cells
  RXR homodimer-mediated transcription compared with ethanol vehicle: significantly better than that of the ethanol vehicle

## Cc1cc2c(cc1C(=O)c1cc(F)c(C(=O)O)c(F)c1)C(C)(C)CCC2(C)C [Analog 19, 2,6-Difluoro-4-(1-(3,5,5,8,8-pentamethyl-5,6,7,8-tetrahydronaphthalen-2-yl)carbonyl)benzoic acid]
[1]; read-out: EC50 value, transfected HCT-116 cells, full dose-response curves 10^−10 to 10^−5 M, ± S.D.
  EC50: 550 nM

## C=C(c1ccc(C(=O)O)c(F)c1)c1cc2c(cc1C)C(C)(C)CCC2(C)C [Compound 11, 2-fluoro-4-(1-(1,2,3,4-tetrahydro-1,1,4,4,6-pentamethylnaphthalen-7-yl)vinyl)benzoic acid]
RXR
  RXR activation compared with 1: slightly higher RXR activation

## Cc1cc2c(cc1C(=O)c1ccc(C(=O)O)c(I)c1)C(C)(C)CCC2(C)C [Compound 17, 2-Iodo-4-(1-(3,5,5,8,8-pentamethyl-5,6,7,8-tetrahydronaphthalen-2-yl)carbonyl)benzoic acid]
Human RXRα; Caco-2 cells
  RXR homodimer-mediated transcription compared with ethanol vehicle: not able to activate transcription
Human RXRα; HCT-116 cells
  RXR homodimer-mediated transcription compared with ethanol vehicle: significant activity
